Source: ChEMBL document CHEMBL4219085, “Discovery of isatin and 1H-indazol-3-ol derivatives as d-amino acid oxidase (DAAO) inhibitors” (Bioorg Med Chem, 2018)

Assays:
D-amino-acid oxidase [1] = molecular target: T1, D-amino-acid oxidase (Homo sapiens, UniProt P14920); assay: Inhibition of DAAO (unknown origin)
Target sequence in this assay (P14920 whole entry): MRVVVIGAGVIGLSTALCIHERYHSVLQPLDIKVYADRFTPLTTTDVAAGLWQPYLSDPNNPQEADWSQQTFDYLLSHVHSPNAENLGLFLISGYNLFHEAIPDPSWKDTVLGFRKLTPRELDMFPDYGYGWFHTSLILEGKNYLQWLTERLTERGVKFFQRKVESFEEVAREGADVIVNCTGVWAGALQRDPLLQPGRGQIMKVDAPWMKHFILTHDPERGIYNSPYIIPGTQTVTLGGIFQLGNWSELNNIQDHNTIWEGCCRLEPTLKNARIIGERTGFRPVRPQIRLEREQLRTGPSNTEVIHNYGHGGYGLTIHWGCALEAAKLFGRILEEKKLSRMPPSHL

[2] = Dissociation constant, pKa of the compound by UV-spectrophotometric titration method; type: physicochemical
[3] = Effective permeability of the compound assessed as membrane retention after 4 hrs at pH 6.5 to 7.4 by PAMPA; type: ADME; details: pH 6.5, 4 h
Mus musculus [4] = assay: Anti-schizophrenic activity in NMRI mouse assessed as increase in D-serine levels in blood at 30 mg/kg, ip measured after 10 mins by capillary electrophoresis laser induced fluorescence method; type: functional
[5] = Drug level in blood of NMRI mouse assessed at 30 mg/kg, ip co-dosed with 30 mg/kg, ip D-serine measured after 60 mins; type: ADME, organism-based; details: read-out: Drug uptake
[6] = Elimination half life in NMRI mouse primary hepatocytes at 1 uM up to 240 mins by LC-MS/MS analysis; type: ADME, cell-based, Hepatocyte; details: read-out: beta t1/2
[7] = Effective permeability of the compound after 4 hrs at pH 6.5 to 7.4 by PAMPA; type: ADME; details: read-out: Peff
[8] = Effective permeability of the compound assessed as membrane retention after 4 hrs at pH 7.4 by PAMPA; type: ADME; details: pH 7.4, 4 h
[9] = Elimination half life in human hepatic microsomes at 1 uM up to 90 mins by LC-MS/MS analysis; type: ADME, microsome; details: liver microsomes, read-out: beta t1/2
[10] = Elimination half life in human primary hepatocytes at 1 uM up to 240 mins by LC-MS/MS analysis; type: ADME, cell-based, Hepatocyte; details: read-out: beta t1/2
D-amino-acid oxidase [11] = molecular target: D-amino-acid oxidase (Sus scrofa, UniProt P00371); assay: Binding affinity to pig kidney DAAO by ITC method
D-amino-acid oxidase [12] = molecular target: T1, D-amino-acid oxidase; assay: Inhibition of human DAAO using D-KYN as substrate preincubated for 20 mins followed by substrate addition measured after 30 mins by FP-6300-based fluorescence spectrometry
Target sequence in this assay (P14920 whole entry): as above

Mus musculus [13] = assay: Anti-schizophrenic activity in NMRI mouse assessed as increase in D-serine levels in blood at 30 mg/kg, ip measured after 60 mins by capillary electrophoresis laser induced fluorescence method; type: functional
[14] = Intrinsic clearance in human primary hepatocytes at 1 uM up to 240 mins by LC-MS/MS analysis; type: ADME, cell-based, Hepatocyte; details: read-out: CLH
[15] = Intrinsic clearance in human hepatic microsomes at 1 uM up to 90 mins by LC-MS/MS analysis; type: ADME, microsome; details: liver microsomes, read-out: CLH
[16] = Intrinsic clearance in NMRI mouse hepatic microsomes at 1 uM up to 90 mins by LC-MS/MS analysis; type: ADME, microsome; details: liver microsomes, read-out: CLH
[17] = Drug level in blood of NMRI mouse assessed at 30 mg/kg, ip co-dosed with 30 mg/kg, ip D-serine measured after 10 mins; type: ADME, organism-based; details: read-out: Drug uptake
[18] = Effective permeability of the compound assessed as membrane retention after 4 hrs at pH 5.5 to 7.4 by PAMPA; type: ADME; details: pH 5.5, 4 h
[19] = Effective permeability of the compound after 4 hrs at pH 7.4 by PAMPA; type: ADME; details: read-out: Peff
[20] = Effective permeability of the compound after 4 hrs at pH 5.5 to 7.4 by PAMPA; type: ADME; details: read-out: Peff
[21] = Elimination half life in NMRI mouse hepatic microsomes at 1 uM up to 90 mins by LC-MS/MS analysis; type: ADME, microsome; details: liver microsomes, read-out: beta t1/2
[22] = Intrinsic clearance in NMRI mouse primary hepatocytes at 1 uM up to 240 mins by LC-MS/MS analysis; type: ADME, cell-based, Hepatocyte; details: read-out: CLH
D-amino-acid oxidase [23] = molecular target: T1, D-amino-acid oxidase; assay: Inhibition of human DAAO at 20 uM using D-KYN as substrate preincubated for 20 mins followed by substrate addition measured after 30 mins by FP-6300-based fluorescence spectrometry
Target sequence in this assay (P14920 whole entry, looked up): as the sequence (P14920 whole entry) above

Chain of D-amino-acid oxidase (Sus scrofa, UniProt P00371) (P00371 whole entry): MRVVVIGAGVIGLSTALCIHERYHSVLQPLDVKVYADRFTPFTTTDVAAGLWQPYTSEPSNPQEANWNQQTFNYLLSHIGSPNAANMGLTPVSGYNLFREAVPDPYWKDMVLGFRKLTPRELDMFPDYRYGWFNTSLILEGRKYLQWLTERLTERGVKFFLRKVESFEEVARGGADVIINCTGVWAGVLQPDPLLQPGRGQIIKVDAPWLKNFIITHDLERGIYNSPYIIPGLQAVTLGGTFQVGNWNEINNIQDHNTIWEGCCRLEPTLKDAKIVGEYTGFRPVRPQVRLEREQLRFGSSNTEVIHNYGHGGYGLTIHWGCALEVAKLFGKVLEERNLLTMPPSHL

## O=C1Nc2c(Cl)cccc2C1=O
D-amino-acid oxidase [1]
  IC50: 7.87 µM
[2]
  pKa: 9.44

## Oc1n[nH]c2cc(F)ccc12
[3]
  R%: 7.1%
Mus musculus [4]
  Activity: 33%
[5]
  concentration at 1 h: 770 nM
[6]
  half-life at 1 µM: 178 min
[7]
  Papp at 4 h: 0.97 ×10⁻⁶ cm/s
[8]
  R%: 5.8%
[9]
  half-life at […], 1 µM: 182 min
[10]
  half-life at 1 µM: 412 min
D-amino-acid oxidase [11]
  Kd: 1000 nM
D-amino-acid oxidase [12]
  IC50: 120 to 123 nM
Mus musculus [13]
  Activity: 27%
[14]
  CLint scaled at 1 µM: 2.78 mL/min/kg
[15]
  CLint scaled at […], 1 µM: 0.9 mL/min/kg
[16]
  CLint scaled at […], 1 µM: 8.29 mL/min/kg
[17]
  concentration at 10 min: 13.1 µM
[18]
  R%: 3.9%
[19]
  Papp at 4 h: 0.72 ×10⁻⁶ cm/s
[20]
  Papp at 4 h: 1.2 ×10⁻⁶ cm/s
[2]
  pKa: 7.84
[21]
  half-life at […], 1 µM: 79.5 min
[22]
  CLint scaled at 1 µM: 20 mL/min/kg

## Oc1n[nH]c2cc(Cl)ccc12
[3]
  R%: 9.7%
[6]
  half-life at 1 µM: 52.2 min
[7]
  Papp at 4 h: 7.43 ×10⁻⁶ cm/s
[8]
  R%: 2.5%
[9]
  half-life at […], 1 µM: 216 min
[10]
  half-life at 1 µM: 450 min
D-amino-acid oxidase [11]
  Kd: 2000 nM
D-amino-acid oxidase [12]
  IC50: 150 to 156 nM
[14]
  CLint scaled at 1 µM: 2.54 mL/min/kg
[15]
  CLint scaled at […], 1 µM: 0.76 mL/min/kg
[16]
  CLint scaled at […], 1 µM: 11.7 mL/min/kg
[18]
  R%: 6.7%
[19]
  Papp at 4 h: 4.47 ×10⁻⁶ cm/s
[20]
  Papp at 4 h: 9.53 ×10⁻⁶ cm/s
[2]
  pKa: 7.59
[21]
  half-life at […], 1 µM: 56.5 min
[22]
  CLint scaled at 1 µM: 68.2 mL/min/kg

## Oc1n[nH]c2ccc(Cl)cc12
D-amino-acid oxidase [11]
  Kd: 780 nM
[2]
  pKa: 7.53

## Oc1cc(CCc2ccccc2)[nH]n1
D-amino-acid oxidase [23]
  inhibition: 66%

## Oc1n[nH]c2c(Cl)cccc12
D-amino-acid oxidase [11]
  Kd: 3310 nM
D-amino-acid oxidase [12]
  IC50: 10100 nM
[2]
  pKa: 7.28

## Oc1noc2cc(Cl)ccc12
D-amino-acid oxidase [11]
  Kd: 870 nM

## Oc1n[nH]c2cccc(Br)c12
D-amino-acid oxidase [23]
  inhibition: 34%
[2]
  pKa: 7.51

## O=c1[nH][nH]c2ccccc12
D-amino-acid oxidase [11]
  Kd: 4430 nM
[2]
  pKa: 8.16

## Oc1n[nH]c2cccc(Cl)c12
D-amino-acid oxidase [23]
  inhibition: 19%
[2]
  pKa: 7.51

## O=[N+]([O-])c1ccc2c(O)[nH]nc2c1
D-amino-acid oxidase [11]
  Kd: 4590 nM
D-amino-acid oxidase [12]
  IC50: 1200 nM
[2]
  pKa: 6.52

## O=c1[nH][nH]c2ccc(Br)cc12
D-amino-acid oxidase [11]
  Kd: 3290 nM

## Oc1n[nH]c2ccc(F)cc12
D-amino-acid oxidase [11]
  Kd: 1200 nM

## Oc1noc2ccccc12
D-amino-acid oxidase [11]
  Kd: 440 nM
D-amino-acid oxidase [12]
  IC50: 418 nM

## Cc1cccc2c1NC(=O)C2=O
D-amino-acid oxidase [11]
  Kd: 8230 nM
D-amino-acid oxidase [12]
  IC50: 13100 nM
